Numbered stars: 1 amine (or outer) side, 2 acyl side, 3 side chain; on linkers, the order of the positions; unused ones are H or OH. Bridge positions count the residues as written; N and C are the ends. Side chains are listed from the residue outwards. Peptide text beside a SMILES is read from it. * marks the point of attachment. C20 diacid = O=C(O)CCCCCCCCCCCCCCCCCCC(=O)*; γGlu = O=C(O)[C@H](CCC(=O)[*:2])N[*:1]
Key:
hAMY3R [1] = biological target: T1, hAMY3R (Homo sapiens, UniProt O60896+P30988); test: scintillation proximity binding assay, hAMY3R membranes; design: expressed in transfected cells; host or cells: BHK tk-ts 13, transient co-transfection; membranes for the SPA, whole cells for the species-specific assays; conditions: for ratio hCTR/hAMY3R: ratio of binding IC50 values
T1 sequence (P30988 25-474): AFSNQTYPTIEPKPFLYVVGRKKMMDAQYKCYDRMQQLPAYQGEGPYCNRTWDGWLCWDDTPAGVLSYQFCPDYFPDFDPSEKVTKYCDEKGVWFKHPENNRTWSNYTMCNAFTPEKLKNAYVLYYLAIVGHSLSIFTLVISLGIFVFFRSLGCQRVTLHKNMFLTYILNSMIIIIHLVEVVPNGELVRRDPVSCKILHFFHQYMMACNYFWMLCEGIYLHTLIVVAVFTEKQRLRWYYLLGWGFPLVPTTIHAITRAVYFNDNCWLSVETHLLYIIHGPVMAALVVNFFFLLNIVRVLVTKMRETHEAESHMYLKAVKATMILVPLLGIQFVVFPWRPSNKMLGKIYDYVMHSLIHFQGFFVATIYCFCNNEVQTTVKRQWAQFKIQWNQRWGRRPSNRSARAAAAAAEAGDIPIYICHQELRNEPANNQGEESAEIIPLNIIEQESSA
T1 sequence (O60896 24-148 partner): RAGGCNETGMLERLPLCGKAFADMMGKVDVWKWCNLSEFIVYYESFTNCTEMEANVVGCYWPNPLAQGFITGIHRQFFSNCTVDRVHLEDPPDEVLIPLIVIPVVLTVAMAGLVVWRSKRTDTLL
Procedure: (§1) The apparent binding affinities were determined using a scintillation proximity assay with beads from PerkinElmer and cell membranes containing the AMY3R or CTRs. […] Membranes were harvested and membranes were prepared and kept at −80 °C until use. The assay was performed in a 384-well Optiplate (PerkinElmer). Membranes were mixed with scintillation proximity assay beads in a 1:1 ratio. […] Samples were analyzed on a TopCounter (Packard). The IC50 values were calculated using GraphPad Prism. See Supporting Information S7: SAR Screening Assay Methods (Binding Assays (Human and Rat)) for more information.
(§2) Binding Assays (Human and Rat). Brief descriptions of the methods used to determine binding affinities for SAR analysis are described below. Curves and IC50 values were plotted and calculated in GraphPad Prism using nonlinear regression (one site binding competition analysis), with pIC50 values […]
(§3) values were used to calculate the binding affinity ratios in order to express the selectivity of compounds for the AMY3R versus the CTR.
(§4) CTR Binding Assay. The binding assay was performed using scintillation proximity assay (SPA) beads (RPNQ0001) from PerkinElmer and cell membranes containing either the hCTR or rCTR. BHK […]
(§5) Membranes were prepared in the following way: the cells were rinsed with PBS and incubated with Versene for approximately 5 min before harvesting. The cells were flushed with PBS and the cell-suspension was centrifuged for 5 min at 1000 rpm. Cells were homogenized (Ultra Turrax) in a buffer […]
(§6) containing 20 mM Na-HEPES and 0.1 mM EDTA (pH 7.4, buffer 2). The resulting pellet was re-suspended in buffer 2 and protein concentration was measured (BCA protein assay, Pierce). The homogenate was kept cold during the whole procedure. The membranes were stored at –80 °C until […]
(§7) The binding assay was performed in a 384-well Optiplate (PerkinElmer) in a total volume of 40 μL.
(§8) Membranes were mixed with SPA beads in a 1:1 ratio. […]
(§9) mg/well. Test compounds were dissolved in DMSO and further diluted in assay buffer (50 mM HEPES, pH 7.4, 1 mM CaCl2, 5 mM MgCl2, 0.1% ovalbumin, and 0.02% Tween-20).
(§10) Calcitonin (NEX422 PerkinElmer) was dissolved in assay buffer and added to the Optiplate at a final […]
(§11) prior to centrifugation (1500 rpm, 10 min). Samples were analyzed on TopCounter (Packard).
(§12) AMY3R Binding Assay. The binding assay was performed using SPA beads (RPNQ0001) from PerkinElmer and cell membranes containing either the hAMY3R or rAMY3R. BHK tk-ts 13 cells were […]
as §5, with “and cultured as described above. Membranes” for “Membranes”, “buffer containing 20 mM Na-HEPES and 10 mM EDTA (pH 7.4), and” for “buffer”
(§13) The resulting pellet was re-suspended, homogenized, and
(§14) 7.4, buffer 2). The resulting pellet was re-suspended in buffer 2 and protein concentration was measured (BCA protein assay, Pierce). The homogenate was kept cold during the whole procedure.
(§15) The membranes were stored at –80 °C until use.
(§16) Membranes were mixed with SPA beads in a 1:1 ratio. The final concentration of SPA beads was 0.05 mg/well. Test compounds were dissolved in DMSO and further diluted in assay buffer (50 mM […]
(§17) rAMY (NEX448 PerkinElmer) was dissolved in assay buffer and added to the Optiplate at a final

rAMY3R = biological target: T2, rAMY3R (Rattus norvegicus, UniProt P32214+Q9JJ73); test: scintillation proximity binding assay, rAMY3R membranes; design: expressed in transfected cells; host or cells: BHK tk-ts 13, transient co-transfection (FuGENE 6); conditions: for ratio rCTR/rAMY3R: ratio of binding IC50 values
T2 sequence (P32214 25-479 isoform P32214-2 limits assumed): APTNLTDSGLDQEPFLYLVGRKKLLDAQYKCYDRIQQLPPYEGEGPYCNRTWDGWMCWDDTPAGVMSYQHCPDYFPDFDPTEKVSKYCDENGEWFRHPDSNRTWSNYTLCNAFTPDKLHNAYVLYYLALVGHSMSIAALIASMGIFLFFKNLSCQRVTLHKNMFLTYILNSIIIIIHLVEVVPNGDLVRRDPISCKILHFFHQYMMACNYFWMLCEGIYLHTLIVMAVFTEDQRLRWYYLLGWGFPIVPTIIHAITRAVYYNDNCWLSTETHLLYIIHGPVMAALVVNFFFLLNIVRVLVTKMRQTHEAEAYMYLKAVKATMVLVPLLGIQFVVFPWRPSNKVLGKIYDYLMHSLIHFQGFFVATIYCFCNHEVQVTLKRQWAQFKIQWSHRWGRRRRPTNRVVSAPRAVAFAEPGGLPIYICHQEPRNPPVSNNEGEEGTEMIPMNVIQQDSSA
T2 sequence (Q9JJ73 23-147 partner): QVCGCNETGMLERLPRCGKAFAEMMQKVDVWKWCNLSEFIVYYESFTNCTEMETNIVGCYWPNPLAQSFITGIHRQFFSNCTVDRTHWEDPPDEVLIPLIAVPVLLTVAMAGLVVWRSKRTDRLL
Procedure: as §1, §2, §3, §4, §5, §6, §7, §8, §9, §10, §11, §12
as §5, with “and cultured as described above. Membranes” for “Membranes”, “buffer containing 20 mM Na-HEPES and 10 mM EDTA (pH 7.4), and” for “buffer”
as §13, §14, §15, §16, §17

hAMY3R [2] = biological target: T1, hAMY3R; test: cAMP-responsive element luciferase reporter assay, human AMY3R; format: cell-based; design: expressed in transfected cells; conditions: ratio of luciferase EC50 values
[3] = SPA binding assay, Tables S13 and S15

Row | ratio hCTR/hAMY3R (hAMY3R [1]) | ratio rCTR/rAMY3R (rAMY3R) | ratio hCTR/hAMY3R (hAMY3R [2]) | hAMY3R pIC50 (hAMY3R [1]; [3]) | IC50 (hAMY3R [1]; SPA, BHK cell membranes, 125I-rat amylin, 120 min 25 °C, read-out: hAMY3R IC50) | rAMY3R pIC50 (rAMY3R; [3]) | SMILES
1 | 55 | 447 | 15 | – | – | – | CC[C@H](C)[C@H](NC(=O)[C@H](C)NC(=O)CNC(=O)[C@H](Cc1ccccc1)NC(=O)[C@H](CC(N)=O)NC(=O)[C@@H]1CCCN1C(=O)[C@H](CO)NC(=O)[C@H](CO)NC(=O)[C@H](Cc1c[nH]cn1)NC(=O)[C@H](CCCNC(=N)N)NC(=O)[C@H](CC(C)C)NC(=O)[C@H](Cc1ccccc1)NC(=O)[C@H](CC(=O)O)NC(=O)[C@H](C)NC(=O)[C@H](CC(C)C)NC(=O)[C@H](CCCNC(=N)N)NC(=O)[C@H](CCC(N)=O)NC(=O)[C@@H](NC(=O)[C@H](C)NC(=O)[C@@H]1CSSC[C@H](NC(=O)[C@@H](N)CCCCNC(=O)CC[C@H](NC(=O)CC[C@H](NC(=O)CCCCCCCCCCCCCCCCCCC(=O)O)C(=O)O)C(=O)O)C(=O)N[C@@H](CC(N)=O)C(=O)N[C@@H]([C@@H](C)O)C(=O)N[C@@H](C)C(=O)N[C@@H]([C@@H](C)O)C(=O)N1)[C@@H](C)O)C(=O)N1CCC[C@H]1C(=O)N[C@@H](CO)C(=O)N[C@@H](CO)C(=O)N[C@H](C(=O)N[C@@H](CC(N)=O)C(=O)N[C@H](C(=O)NCC(=O)N[C@@H](CO)C(=O)N[C@@H](CC(=O)O)C(=O)N[C@H](C(=O)N[C@@H](Cc1ccc(O)cc1)C(N)=O)[C@@H](C)O)C(C)C)[C@@H](C)O [Peptide 6] (H-K([γGlu-γGlu-C20 diacid])CNTATCATQRLADFLRHSSPNFGAIPSSTNVGSDTY-NH2; disulfide 2-7)
2 | 10 | 7.5 | 6.9 | 8.95 | 1.12 nM | 9.00 | CC(C)C[C@H](NC(=O)[C@H](CCCNC(=N)N)NC(=O)[C@H](CCC(N)=O)NC(=O)[C@@H](NC(=O)[C@H](C)NC(=O)[C@@H]1CSSC[C@H](NC(=O)[C@@H](N)CCCCNC(=O)CC[C@H](NC(=O)CC[C@H](NC(=O)CCCCCCCCCCCCCCCCCCC(=O)O)C(=O)O)C(=O)O)C(=O)N[C@@H](CC(N)=O)C(=O)N[C@@H]([C@@H](C)O)C(=O)N[C@@H](C)C(=O)N[C@@H]([C@@H](C)O)C(=O)N1)[C@@H](C)O)C(=O)N[C@@H](C)C(=O)N[C@@H](CC(=O)O)C(=O)N[C@@H](Cc1ccccc1)C(=O)N[C@@H](CC(C)C)C(=O)N[C@@H](CCCNC(=N)N)C(=O)N[C@@H](Cc1c[nH]cn1)C(=O)N[C@@H](CO)C(=O)N[C@@H](CO)C(=O)N[C@@H](CC(N)=O)C(=O)N1CCC[C@H]1C(=O)N[C@@H](Cc1ccccc1)C(=O)NCC(=O)N[C@@H](C)C(=O)N1CCC[C@H]1C(=O)N[C@@H](CC(C)C)C(=O)N[C@@H](CO)C(=O)N[C@@H](CO)C(=O)N[C@H](C(=O)N[C@@H](CC(N)=O)C(=O)N[C@H](C(=O)NCC(=O)N[C@@H](CO)C(=O)N[C@@H](CC(=O)O)C(=O)N[C@H](C(=O)N[C@@H](Cc1ccc(O)cc1)C(N)=O)[C@@H](C)O)C(C)C)[C@@H](C)O [Peptide 7] (H-K([γGlu-γGlu-C20 diacid])CNTATCATQRLADFLRHSSNPFGAPLSSTNVGSDTY-NH2; disulfide 2-7)

Reference: PMC11284788, “NN1213 – A Potent, Long-Acting, and Selective Analog of Human Amylin” (Journal of Medicinal Chemistry, 2024)
